From patent US20250031744A1, “Methods and Compositions for Managing Blood Glucose Levels Using Rare Sugars” (DiaVita Therapeutics LLC, priority 2023, published 2025)

Assays:
[1] = tested on: subject with type 1 diabetes; experiment: Pilot open-label observational study with continuous glucose monitoring, treatment three times per day before meals (Example 1); assay type: in vivo, human; conditions: 7.5 g tagatose prior to meals without allulose or ginger
Description: Example 1. A pilot, open-label observational study was conducted on a subject with type 1 diabetes. The subject used a Dexcom® continuous glucose monitoring system which recorded blood sugar levels every five minutes. The subject first completed an extensive control period for roughly two months to obtain background blood sugar levels.
Subsequently, the subject was administered numerous treatment protocols separated by washout periods of at least 7 days (typically two weeks). […] The subject completed treatments with the following active ingredients: (i) Experimental Treatment 1: tagatose plus allulose plus ginger, (ii) Experimental Treatment 2: tagatose plus ginger, (iii) Experimental Treatment 3: allulose plus ginger, and (iv) Experimental Treatment 4: a second treatment course comprising tagatose plus allulose plus ginger. […]
Blood sugar levels were recorded every five minutes using the continuous glucose monitoring system. Primary endpoints were (i) average blood sugar level over the course of treatment, (ii) number of five minute periods with blood sugar level over 180 mg/dL (“time with high blood sugar”) and (iii) “hyperglycemia index”, calculated as the fraction of time with blood sugar level over 250 mg/dL multiplied by the average magnitude of the these hyperglycemic periods (defined as the difference in mg/dL between the recorded blood sugar level and 250). […]

subjects = experiment: Experimental treatment with tagatose alone, gastrointestinal side effects; assay type: in vivo, human; conditions: no co-administration of allulose or ginger; treatment stopped after a couple of days
Excerpt: Both tagatose and allulose can give rise to significant gastrointestinal side effects (e.g., bloating, flatulence, abdominal pain, diarrhea). In our personal experience and anecdotally, the GI side effects are more significant for tagatose than allulose.

O=C(CO)[C@@H](O)[C@@H](O)[C@H](O)CO [tagatose]
reason treatment was not completed [1]: GI discomfort | GI side effects of tagatose alone (subjects): unpleasant GI side effects reported by a majority of subjects
